Assay results taken from patent US10508077B2 (FORMA Therapeutics, Inc., priority 2015, dated 2019).

biological target: T1, Full length human recombinant HDAC8 protein (Homo sapiens, UniProt Q9BY41); experiment: In vitro histone deacetylase assay: enzymatic HDAC8 assay, electrophoretic mobility shift; assay type: biochemical; conditions: substrate RHKK(Ac)-NH2, 1 nM enzyme, compounds listed under IC50 range headings
T1 construct: Full length human recombinant HDAC8 protein was expressed in baculoviral system; made in house
T1 sequence (Q9BY41 1-377): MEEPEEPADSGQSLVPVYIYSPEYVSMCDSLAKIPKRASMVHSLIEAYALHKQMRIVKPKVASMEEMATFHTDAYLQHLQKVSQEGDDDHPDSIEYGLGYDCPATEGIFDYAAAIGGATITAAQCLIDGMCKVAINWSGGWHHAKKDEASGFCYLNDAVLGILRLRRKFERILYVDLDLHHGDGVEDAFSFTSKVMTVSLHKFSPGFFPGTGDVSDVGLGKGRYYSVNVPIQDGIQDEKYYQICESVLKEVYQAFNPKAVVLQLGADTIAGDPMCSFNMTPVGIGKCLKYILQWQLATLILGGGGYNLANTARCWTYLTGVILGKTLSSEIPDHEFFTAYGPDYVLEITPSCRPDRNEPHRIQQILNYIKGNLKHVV
Procedure, shortened: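 Readout was microfluidic mobility-shift separation of deacetylated product from fluorescent RHKK(Ac)-NH2 substrate (2 µM), after reaction with 1 nM recombinant full-length human HDAC8 at 25 °C, pH 7.5, stopped with SDS. Twelve 3-fold-spaced concentrations tested; product/sum ratios normalized to controls and fitted with a 4-parameter model for IC50.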

| IC50 [nM] | Structure (SMILES) |
| --- | --- |
| < 1000 | CC(CN1CCN(c2ccccc2/C=C/C(=O)NO)CC1)c1ccccc1 (stereo not drawn) [Example I-300, (E)-N-hydroxy-3-(2-(4-(2-phenylpropyl)piperazin-1-yl)phenyl)acrylamide] |
| < 1000 | CC(C)(C)OC(=O)NC1CCN(c2ccccc2/C=C/C(=O)NO)C1 (stereo not drawn) [Example I-301, tert-butyl (E)-(1-(2-(3-(hydroxyamino)-3-oxoprop-1-en-1-yl)phenyl)pyrrolidin-3-yl)carbamate] |
| < 1000 | O=C(/C=C/c1ccccc1N1CCN(c2ccccc2)C1=O)NO [Example I-302, (E)-N-hydroxy-3-(2-(2-oxo-3-phenylimidazolidin-1-yl)phenyl)acrylamide] |
| < 1000 | O=C(/C=C/c1ccccc1NC(=O)c1ccnc(N2CCOCC2)c1)NO [Example I-305, (E)-N-(2-(3-(hydroxyamino)-3-oxoprop-1-en-1-yl)phenyl)-2-morpholinoisonicotinamide] |
| < 1000 | O=C(/C=C/c1ccccc1N1Cc2ccccc2C1=O)NO [Example I-308, (E)-N-hydroxy-3-(2-(1-oxoisoindolin-2-yl)phenyl)acrylamide] |
| < 1000 | O=C(/C=C/c1ccccc1N1CC2CC1CN2C(=O)Cc1ccc(Cl)cc1)NO [Example I-316, (E)-3-(2-((1S,4S)-5-(2-(4-chlorophenyl)acetyl)-2,5-diazabicyclo[2.2.1]heptan-2-yl)pheynyl)-N-hydroxyacrylamide] |
| < 1000 | O=C(/C=C/c1ccccc1N1CCC(NC(=O)c2ccccc2)C1)NO (stereo not drawn) [Example I-318, (E)-N-(1-(2-(3-(hydroxyamino)-3-oxoprop-1-en-1-yl)phenyl)pyrrolidin-3-yl)benzamide] |
| < 1000 | O=C(/C=C/c1ccccc1N1CCN(C(=O)C2(C(F)(F)F)CC2)CC1)NO [Example I-322, (E)-N-hydroxy-3-(2-(4-(1-(trifluoromethyl)cyclopro-pane-1-carbonyl)piperazin-1-yl)phenyl)acrylamide] |
| < 1000 | O=C(/C=C/c1ccccc1N1C[C@@H]2C[C@H]1CN2C(=O)C1(c2ccc(Cl)cc2)CC1)NO [Example I-329, (E)-3-(2-((1S,4S)-5-(1-(4-chlorophenyl)cyclopropane-1-carbonyl)-2,5-diazabicyclo[2.2.1]heptan-2-yl)phenyl)-N-hydroxyacrylamide] |
| < 1000 | O=C(/C=C/c1ccccc1NC1CCN(Cc2ccc(F)cc2)C1)NO (stereo not drawn) [Example I-330, (E)-3-(2-((1-(4-fluorobenzyl)pyrrolidin-3-yl)amino)phenyl)-N-hydroxyacrylamide] |
| < 1000 | O=C(/C=C/c1ccccc1N1CCC(NC(=O)Cc2ccc(F)cc2)CC1)NO [Example I-331, (E)-3-(2-(4-(2-(4-fluorophenyl)acetamido)piperidin-1-yl)phenyl)-N-hydroxyacrylamide] |
| < 1000 | O=C(/C=C/c1ccccc1NC(=O)c1ccccc1)NO [Example I-506, (E)-N-(2-(3-(hydroxyamino)-3-oxoprop-1-enyl)phenyl)benzamide 2,2,2-trifluoroacetate] |
| < 1000 | O=C(/C=C/c1ccccc1N1CCN(C(=O)Nc2ccc(OC(F)(F)F)cc2)CC1=O)NO [Example I-528, (E)-4-(2-(3-(hydroxyamino)-3-oxoprop-1-en-1-yl)phenyl)-3-oxo-N-(4-(trifluoromethoxy)phenyl)piperazine-1-carboxamide] |
| < 1000 | O=C(/C=C/c1ccccc1N1CCN(C(=O)c2ccc(C(F)(F)F)cc2)CC1=O)NO [Example I-532, (E)-N-hydroxy-3-(2-(2-oxo-4-(4-(trifluoromethyl)benzoyl)piperazin-1-yl)phenyl)acrylamide] |
| 1000 to 10000 | O=C(/C=C/c1ccccc1C(=O)Nc1ccc(-c2ccccc2)c(C(F)(F)F)c1)NO [II-1] |
| 1000 to 10000 | O=C(/C=C/c1ccccc1C(=O)Nc1ccccc1)NO [II-2, (E)-2-(3-(hydroxyamino)-3-oxoprop-1-en-1-yl)-N-phenylbenzamide] |
| 1000 to 10000 | CCc1ccc(NC(=O)c2ccccc2/C=C/C(=O)NO)cc1 [II-3, (E)-N-(4-ethylphenyl)-2-(3-(hydroxyamino)-3-oxoprop-1-en-1-yl)benzamide] |

| IC50 [nM] | Structure (SMILES) |
| --- | --- |
| 1000 to 10000 | O=C(/C=C/c1ccccc1C(=O)NCC1CCCCC1)NO [II-4, (E)-N-(cyclohexylmethyl)-2-(3-(hydroxyamino)-3-oxoprop-1-en-1-yl)benzamide] |
| 1000 to 10000 | COc1ccc(CNC(=O)c2ccccc2/C=C/C(=O)NO)cc1 [II-5, (E)-2-(3-(hydroxyamino)-3-oxoprop-1-en-1-yl)-N-(4-methoxybenzyl)benzamide] |
| 1000 to 10000 | O=C(/C=C/c1ccccc1C(=O)NCCc1ccc(F)cc1)NO [II-6, (E)-N-(4-fluorophenethyl)-2-(3-(hydroxyamino)-3-oxoprop-1-en-1-yl)benzamide] |
| 1000 to 10000 | O=C(/C=C/c1ccccc1C(=O)NCc1ccc(-c2ccccc2)cc1)NO [II-7, (E)-N-([1,1′-biphenyl]-4-ylmethyl)-2-(3-(hydroxyamino)-3-oxoprop-1-en-1-yl)benzamide] |
| 1000 to 10000 | CC(=O)NC1CCN(C(=O)c2ccccc2/C=C/C(=O)NO)CC1 [II-8, (E)-3-(2-(4-acetamidopiperidine-1-carbonyl)phenyl)-N-hydroxyacrylamide] |
| 1000 to 10000 | O=C(/C=C/c1ccccc1C(=O)N1CCC2(CC1)OCc1ccccc12)NO [II-9, (E)-3-(2-(3H-spiro[isobenzofuran-1,4′-piperidine]-1′-carbonyl)phenyl)-N-hydroxyacrylamide] |
| 1000 to 10000 | O=C(/C=C/c1ccccc1C(=O)N1CC(N2CCS(=O)(=O)CC2)C1)NO [II-10, (E)-3-(2-(3-(1,1-dioxidothiomorpholino)azetidine-1-carbonyl)phenyl)-N-hydroxyacrylamide] |
| 1000 to 10000 | COCC1(N(C)C(=O)c2ccccc2/C=C/C(=O)NO)CC1 [II-11, (E)-2-(3-(hydroxyamino)-3-oxoprop-1-en-1-yl)-N-(1-(methoxymethyl)cyclopropyl)-N-methylbenzamide] |
| 1000 to 10000 | O=C(/C=C/c1ccccc1C(=O)N1C2CCC1CC2)NO [II-12, (E)-3-(2-(7-azabicyclo[2.2.1]heptane-7-carbonyl)phenyl)-N-hydroxyacrylamide] |
| < 1000 | O=C(/C=C/c1ccccc1C(=O)NC1CCCCC1)NO [II-13, (E)-N-cyclohexyl-2-(3-(hydroxyamino)-3-oxoprop-1-en-1-yl)benzamide] |
| < 1000 | CCCCc1ccc(NC(=O)c2ccccc2/C=C/C(=O)NO)cc1 [II-14, (E)-N-(4-butylphenyl)-2-(3-(hydroxyamino)-3-oxoprop-1-en-1-yl)benzamide] |
| < 1000 | O=C(/C=C/c1ccccc1C(=O)N1CCCCC1)NO [II-16, (E)-N-hydroxy-3-(2-(piperidine-1-carbonyl)phenyl)acrylamide] |
| < 1000 | O=C(/C=C/c1ccccc1C(=O)N1CCC(F)(F)CC1)NO [II-17, (E)-3-(2-(4,4-difluoropiperidine-1-carbonyl)phenyl)-N-hydroxyacrylamide] |
| < 1000 | CN(Cc1cccc(C(F)(F)F)c1)C(=O)c1ccccc1/C=C/C(=O)NO [II-18] |
| < 1000 | O=C(/C=C/c1ccccc1C(=O)N1CCN(c2ccccc2)CC1)NO [II-19, (E)-N-hydroxy-3-(2-(4-phenylpiperazine-1-carbonyl)phenyl)acrylamide] |
| < 1000 | O=C(/C=C/c1ccccc1C(=O)N1CCN(c2ccncc2)CC1)NO [II-20] |
